Read-outs that look alike come from different tables or passages of the source.
What was measured:
Assay type in all cases: cell-based
[1] = system: anaplastic large cell lymphoma cells (DEL); experiment: In vitro potency (CellTiter-Glo, 96 h), DEL
Protocol: (§1) In vitro potency was assessed on multiple cancer cell lines. All cell lines were authenticated by STR profiling at IDEXX Bioresearch and cultured for no more than 2 months after resuscitation. Cells cultured in log-phase growth were seeded for 24 hours in 96-well plates containing […] RPMI 1640 supplemented with 20% FBS. Serial dilutions of antibody-drug conjugates in cell culture media were prepared at 4× working concentrations, and 50 μL of each dilution was added to the 96-well plates. Following addition of test articles, cells were incubated with test articles for 4 days at 37 0° C. After 96 hours, growth inhibition was assessed by CellTiterGlo® (Promega, Madison, WI) and luminescence was measured on a plate reader.
(§2) In Table 7, IC50 values for ADCs are given in ng/mL. Cell viability was determined by CellTiter-Glo staining after 96 h exposure to ADC. ND=Not Determined. Ag2 is an antibody targeting a ubiquitous and readily internalizable antigen. The cancer cell lines tested are renal carcinoma cells (786-0), melanoma cells (A2058), pancreatic cancer cells (BxPC3), non-small-cell lung cancer cells (Calu1), anaplastic large cell lymphoma cells (DEL, DELBVR, Karpas299), Hodgkin's lymphoma cells (L540cy), (Ls174T), breast cancer cells (MDA-MB-231), acute myeloid leukemia cells (MOLM-13), and B-lymphocyte cancer cells (SU-DHL4).
as §1, with “FBS.” for “FBS. Serial dilutions of antibody-drug conjugates in cell culture media were prepared at 4× working concentrations, and 50 μL of each dilution was added to the 96-well plates.”
(§3) Cell viability was determined by CellTiter-Glo staining after 96 h exposure to the compound. ND=Not Determined. The cancer cell lines tested are renal carcinoma cells (786-0), melanoma cells (A2058), pancreatic cancer cells (BxPC3), non-small-cell lung cancer cells (Calu1), anaplastic large cell lymphoma cells (DEL, DELBVR, Karpas299), Hodgkin's lymphoma cells (L540cy), (Ls 174T), breast cancer cells (MDA-MB-231), acute myeloid leukemia cells (MOLM-13), B-lymphocyte cancer cells (SU-DHL4), multiple myeloma cells (MM.1R), (U266), and melanoma cells (SK-MEL-5).
as §1, with “37°” for “37 0°”
(§4) In the following Tables IC50 values for ADCs and CPT free drugs are given in ng/mL and nmol/L concentrations. Cell viability was determined by CellTiter-Glo staining after 96 h exposure to ADC or CPT free drug.
(§5) Cell viability was determined by CellTiter-Glo staining after 96 h exposure to ADC. ND=Not Determined.

[2] = system: anaplastic large cell lymphoma cells (DELBVR); experiment: In vitro potency (CellTiter-Glo, 96 h), DELBVR
Protocol: as §1, §2
as §1, with “FBS.” for “FBS. Serial dilutions of antibody-drug conjugates in cell culture media were prepared at 4× working concentrations, and 50 μL of each dilution was added to the 96-well plates.”
as §3
as §1, with “37°” for “37 0°”
as §4, §5

melanoma cells (A2058) = experiment: In vitro potency (CellTiter-Glo, 96 h), A2058; conditions: Homo sapiens, A2058, 96 h, read-out: A2058 IC50
Protocol: as §1, §2
as §1, with “FBS.” for “FBS. Serial dilutions of antibody-drug conjugates in cell culture media were prepared at 4× working concentrations, and 50 μL of each dilution was added to the 96-well plates.”
as §3
as §1, with “37°” for “37 0°”
as §4, §5

[3] = system: renal carcinoma cells (786-O); experiment: In vitro potency (CellTiter-Glo, 96 h), 786-O; conditions: Homo sapiens, 786-0, 96 h
Protocol: as §1, §2
as §1, with “FBS.” for “FBS. Serial dilutions of antibody-drug conjugates in cell culture media were prepared at 4× working concentrations, and 50 μL of each dilution was added to the 96-well plates.”
as §3
as §1, with “37°” for “37 0°”
as §4, §5

[4] = system: anaplastic large cell lymphoma cells (Karpas299); experiment: In vitro potency (CellTiter-Glo, 96 h), Karpas299; conditions: Homo sapiens, KARPAS-299, 96 h
Protocol: as §1, §2
as §1, with “FBS.” for “FBS. Serial dilutions of antibody-drug conjugates in cell culture media were prepared at 4× working concentrations, and 50 μL of each dilution was added to the 96-well plates.”
as §3
as §1, with “37°” for “37 0°”
as §4, §5

Ls174T cells = experiment: In vitro potency (CellTiter-Glo, 96 h), Ls174T; conditions: Homo sapiens, LS174T, 96 h
Protocol: as §1, §2
as §1, with “FBS.” for “FBS. Serial dilutions of antibody-drug conjugates in cell culture media were prepared at 4× working concentrations, and 50 μL of each dilution was added to the 96-well plates.”
as §3
as §1, with “37°” for “37 0°”
as §4, §5

[5] = system: Hodgkin's lymphoma cells (L540cy); experiment: In vitro potency (CellTiter-Glo, 96 h), L540cy
Protocol: as §1, §2
as §1, with “FBS.” for “FBS. Serial dilutions of antibody-drug conjugates in cell culture media were prepared at 4× working concentrations, and 50 μL of each dilution was added to the 96-well plates.”
as §3
as §1, with “37°” for “37 0°”
as §4, §5

[6] = system: breast cancer cells (MDA-MB-231); experiment: In vitro potency (CellTiter-Glo, 96 h), MDA-MB-231; conditions: Homo sapiens, MDA-MB-231, 96 h
Protocol: as §1, §2
as §1, with “FBS.” for “FBS. Serial dilutions of antibody-drug conjugates in cell culture media were prepared at 4× working concentrations, and 50 μL of each dilution was added to the 96-well plates.”
as §3
as §1, with “37°” for “37 0°”
as §4, §5

[7] = system: pancreatic cancer cells (BxPC3); experiment: In vitro potency (CellTiter-Glo, 96 h), BxPC3; conditions: Homo sapiens, BXPC-3, 96 h
Protocol: as §1, §2
as §1, with “FBS.” for “FBS. Serial dilutions of antibody-drug conjugates in cell culture media were prepared at 4× working concentrations, and 50 μL of each dilution was added to the 96-well plates.”
as §3
as §1, with “37°” for “37 0°”
as §4, §5

[8] = system: acute myeloid leukemia cells (MOLM-13); experiment: In vitro potency (CellTiter-Glo, 96 h), MOLM-13; conditions: Homo sapiens, MOLM-13, 96 h
Protocol: as §1, §2
as §1, with “FBS.” for “FBS. Serial dilutions of antibody-drug conjugates in cell culture media were prepared at 4× working concentrations, and 50 μL of each dilution was added to the 96-well plates.”
as §3
as §1, with “37°” for “37 0°”
as §4, §5

[9] = system: B-lymphocyte cancer cells (SU-DHL4); experiment: In vitro potency (CellTiter-Glo, 96 h), SU-DHL-4; conditions: Homo sapiens, SU-DHL-4, 96 h
Protocol: as §1, §2
as §1, with “FBS.” for “FBS. Serial dilutions of antibody-drug conjugates in cell culture media were prepared at 4× working concentrations, and 50 μL of each dilution was added to the 96-well plates.”
as §3
as §1, with “37°” for “37 0°”
as §4, §5

[10] = read-out: DEL IC50, camptothecin free drug, 96 h
[11] = read-out: DELBVR IC50, camptothecin free drug, 96 h
[12] = read-out: 786-O IC50, camptothecin free drug, 96 h
[13] = read-out: Karpas299 IC50, camptothecin free drug, 96 h
[14] = read-out: Ls174T IC50, camptothecin free drug, 96 h
[15] = read-out: L540cy IC50, camptothecin free drug, 96 h
[16] = read-out: MDAMB231 IC50, camptothecin free drug, 96 h
[17] = read-out: BxPC3 IC50, camptothecin free drug, 96 h
[18] = read-out: MOLM-13 IC50, camptothecin free drug, 96 h
[19] = read-out: SU-DHL-4 IC50, camptothecin free drug, 96 h
[20] = read-out: DEL IC50, Table 28, CPT free drugs, anaplastic large cell lymphoma cells DEL, CellTiter-Glo
[21] = read-out: DELBVR IC50, Table 28, CPT free drugs, anaplastic large cell lymphoma cells DELBVR, CellTiter-Glo
[22] = read-out: 786-O IC50, Table 28, CPT free drugs, renal carcinoma cells 786-O, 96 h, CellTiter-Glo
[23] = read-out: Karpas299 IC50, Table 28, CPT free drugs, anaplastic large cell lymphoma cells Karpas299, 96 h, CellTiter-Glo
[24] = read-out: Ls174T IC50, Table 28, CPT free drugs, Ls174T cells, CellTiter-Glo
[25] = read-out: L540cy IC50, Table 28, CPT free drugs, Hodgkin's lymphoma cells L540cy, CellTiter-Glo
[26] = read-out: MDAMB231 IC50, Table 28, CPT free drugs, breast cancer cells MDA-MB-231, 96 h, CellTiter-Glo
[27] = read-out: BxPC3 IC50, Table 28, CPT free drugs, pancreatic cancer cells BxPC3, 96 h, CellTiter-Glo
[28] = read-out: MOLM-13 IC50, Table 28, CPT free drugs, acute myeloid leukemia cells MOLM-13, 96 h, CellTiter-Glo
[29] = read-out: SU-DHL-4 IC50, Table 28, CPT free drugs, B-lymphocyte cancer cells SU-DHL4, 96 h, CellTiter-Glo

Question: How did the IC50 [1, 10] turn out when `CC[C@@]1(O)C(=O)OCc2c1cc1n(c2=O)Cc2c-1nc1cc3c(cc1c2CNCCCN)OCO3` [Compound 7v] was run?
Answer: 58 nM

Question: And the IC50 [2, 11]?
Answer: 57 nM

Question: What about the IC50 (melanoma cells (A2058)) of the same molecule?
Answer: 69 nM

Question: What about the IC50 [3, 12] of the same molecule?
Answer: 174 nM

Question: What about the IC50 [4, 13] of the same molecule?
Answer: 132 nM

Question: What about the IC50 (Ls174T cells; [14]) of the same molecule?
Answer: 146 nM

Question: And the IC50 [5, 15]?
Answer: 87 nM

Question: What about the IC50 [6, 16] of the same molecule?
Answer: 1000 nM

Question: And the IC50 [7, 17]?
Answer: 225 nM

Question: And the IC50 [8, 18]?
Answer: > 1000 nM

Question: And the IC50 [9, 19]?
Answer: 99 nM

Question: Which IC50 [1, 10] does the source give for `CC[C@@]1(O)C(=O)OCc2c1cc1n(c2=O)Cc2c-1nc1cc3c(cc1c2CNC1CCOCC1)OCO3` [Compound 7k] here?
Answer: 6 nM

Question: And the IC50 [2, 11]?
Answer: 14 nM

Question: And the IC50 (melanoma cells (A2058))?
Answer: 14 nM

Question: And the IC50 [3, 12]?
Answer: 57 nM

Question: And the IC50 [4, 13]?
Answer: 46 nM

Question: What about the IC50 (Ls174T cells; [14]) of the same molecule?
Answer: 67 nM

Question: And the IC50 [5, 15]?
Answer: 20 nM

Question: What about the IC50 [6, 16] of the same molecule?
Answer: 207 nM

Question: What about the IC50 [7, 17] of the same molecule?
Answer: 63 nM

Question: What about the IC50 [8, 18] of the same molecule?
Answer: 34 nM

Question: What about the IC50 [9, 19] of the same molecule?
Answer: 19 nM

Question: How did the IC50 [1, 20] turn out when `CC[C@@]1(O)C(=O)OCc2c1cc1n(c2=O)Cc2c-1nc1cc3c(cc1c2CNC(C)=O)CCO3` [Compound 12] was run?
Answer: 1 nM

Question: What about the IC50 [2, 21] of the same molecule?
Answer: 1 nM

Question: And the IC50 [3, 22]?
Answer: 13 nM

Question: What about the IC50 [4, 23] of the same molecule?
Answer: 24 nM

Question: What about the IC50 (Ls174T cells; [24]) of the same molecule?
Answer: 19 nM

Question: And the IC50 [5, 25]?
Answer: 5 nM

Question: And the IC50 [6, 26]?
Answer: 27 nM

Question: What about the IC50 [7, 27] of the same molecule?
Answer: 12 nM

Question: What about the IC50 [8, 28] of the same molecule?
Answer: 5 nM

Question: What about the IC50 [9, 29] of the same molecule?
Answer: 1 nM

Question: What does the source list for `CC[C@@]1(O)C(=O)OCc2c1cc1n(c2=O)Cc2c-1nc1cc(F)c(C)c(Cl)c1c2CNC(C)=O` [Compound 12a]?
Answer: IC50 [1, 20]: 0.2 nM; IC50 [2, 21]: 0.2 nM; IC50 [3, 22]: 1 nM; IC50 [4, 23]: 1 nM; IC50 (Ls174T cells; [24]): 7 nM; IC50 [5, 25]: 0.4 nM; IC50 [6, 26]: 2 nM; IC50 [7, 27]: 2 nM; IC50 [8, 28]: 1 nM; IC50 [9, 29]: 0.4 nM

Question: For `CC[C@@]1(O)C(=O)OCc2c1cc1n(c2=O)Cc2c-1nc1cc3c(cc1c2CNC[C@H](O)CO)OCO3` [Compound 7n], which IC50 ([1]; read-out: DEL IC50, Table 29, CPT free drugs, anaplastic large cell lymphoma cells DEL, CellTiter-Glo) is on record?
Answer: 5 nM

Question: What about the IC50 ([2]; read-out: DELBVR IC50, Table 29, CPT free drugs, anaplastic large cell lymphoma cells DELBVR, CellTiter-Glo) of the same molecule?
Answer: 6 nM

Question: And the IC50 ([3]; read-out: 786-O IC50, Table 29, CPT free drugs, renal carcinoma cells 786-O, 96 h, CellTiter-Glo)?
Answer: 66 nM

Question: What about the IC50 ([4]; read-out: Karpas299 IC50, Table 29, CPT free drugs, anaplastic large cell lymphoma cells Karpas299, 96 h, CellTiter-Glo) of the same molecule?
Answer: 57 nM

Question: And the IC50 (Ls174T cells; read-out: Ls174T IC50, Table 29, CPT free drugs, Ls174T cells, CellTiter-Glo)?
Answer: 39 nM

Question: What about the IC50 ([5]; read-out: L540cy IC50, Table 29, CPT free drugs, Hodgkin's lymphoma cells L540cy, CellTiter-Glo) of the same molecule?
Answer: 23 nM

Question: What about the IC50 ([6]; read-out: MDAMB231 IC50, Table 29, CPT free drugs, breast cancer cells MDA-MB-231, 96 h, CellTiter-Glo) of the same molecule?
Answer: 96 nM

Question: What about the IC50 ([7]; read-out: BxPC3 IC50, Table 29, CPT free drugs, pancreatic cancer cells BxPC3, 96 h, CellTiter-Glo) of the same molecule?
Answer: 47 nM

Question: And the IC50 ([8]; read-out: MOLM-13 IC50, Table 29, CPT free drugs, acute myeloid leukemia cells MOLM-13, 96 h, CellTiter-Glo)?
Answer: 137 nM

Question: What about the IC50 ([9]; read-out: SU-DHL-4 IC50, Table 29, CPT free drugs, B-lymphocyte cancer cells SU-DHL4, 96 h, CellTiter-Glo) of the same molecule?
Answer: 21 nM
